Experimental data from article PMC9525273 (Nature Communications, 2022).
Values joined by “and” are separate entries in the source; they are usually repeats but may differ in a detail not shown here. Identical values can stand only once. “Also recorded” adds a separate entry of the source. Like-named read-outs stand apart in the source and are kept apart here.

Tests used:
Type in all cases: cell-based, Plasmodium falciparum
Dd2 parasites = assay: P. falciparum proliferation assay (72 h, fluorescent DNA-intercalating dye); settings: read-out: IC50 values; Dd2 parasites; individual experiments
Description: (§1) For experiments with all other parasites, the effects of compounds of interest on parasite proliferation was measured in 96-well plates containing serial dilutions of the compounds in culture medium, with a fluorescent DNA-intercalating dye used to detect surviving parasites. The assays were initiated with erythrocytes infected with predominantly ring-stage parasites, and the starting parasitaemia and haematocrit were both 1%.

[1] = tested on: Dd2-PfATP4^T418N,P990R parasites; assay: as above; settings: Dd2-PfATP4T418N,P990R parasites; individual experiments; read-out: IC50 values
Description: as §1

Dd2-Polδ parasites = assay: as above
Description: as §1

[2] = tested on: Dd2-Polδ-PfATP4^G358S parasites; assay: as above; settings: Dd2-Polδ-PfATP4G358S parasites; individual experiments; read-out: IC50 values
Description: as §1

[3] = tested on: HCR1 parasites (highly cipargamin-resistant clone 1); assay: as above; settings: Plasmodium falciparum, HCR1 parasites; individual experiments; read-out: IC50 values
Description: as §1

[4] = tested on: HCR2 parasites (highly cipargamin-resistant clone 2); assay: as above; settings: HCR2 parasites, individual experiments, read-out: IC50 values
Description: as §1

NF54^WT parasites = assay: microbe, parasite or virus in culture; settings: for FC (IC50) / FC (IC90): NF54WT, reference line
Description: (§2) For the NF54-based lines and Dd2-B2-PfATP4^G358S and its parent, assays were initiated with cultures containing predominantly ring-stage parasites with a parasitaemia of 0.3% and a haematocrit of 1%. All assays using NF54 were performed in culture media containing 10% O + human serum. The duration of the assays was 72 h and the concentration of DMSO was <0.5% (v/v). Serial dilutions of the test compounds were performed using a Tecan D300e digital dispenser, with parasite cultures added manually. Parasite survival was assessed by flow cytometry on an Intellicyt iQue3 (Essen Bioscience), with 1× SYBR Green I (Invitrogen) and 200 nM MitoTracker Deep Red FM (Invitrogen) used to stain the nucleus and the mitochondria in live parasites, respectively. The gating strategy used to quantify parasite survival, performed using FlowJo version 10 (FlowJo LLC.), is illustrated in Supplementary Fig. 9. IC50 and IC90 values were calculated by linear interpolation of the dose-response data.

NF54^CTL parasites = assay: P. falciparum proliferation assay (72 h, flow cytometry, SYBR Green I/MitoTracker); settings: for FC (IC50) / FC (IC90): NF54CTL compared to NF54WT
Description: as §2

[5] = tested on: parasite lines with a G358S mutation in PfATP4; assay: P. falciparum proliferation assays, statements on all lines with the G358S mutation; settings: G358S lines vs PfATP4 wild-type controls
Description: as §2, with “Two types of parasite proliferation assays were employed in this study, with both yielding highly consistent results. For” for “For”
as §1, with “1%. […] Fluorescence was measured using a FLUOstar OPTIMA plate reader (BMG LABTECH), with OPTIMA version 2.20R2 and MARS Data Analysis Software version 3.01 R2 (BMG LABTECH).” for “1%.”

NF54^G358S-1 parasites = assay: P. falciparum proliferation assay (72 h, flow cytometry, SYBR Green I/MitoTracker)
Description: as §2

NF54^G358S-2 parasites = assay: as above
Description: as §2

[6] = NF54WT parasites, individual experiments, read-out: IC50 values
[7] = NF54WT parasites, individual experiments, read-out: IC90 values
[8] = Plasmodium falciparum, NF54, NF54WT parasites, individual experiments, read-out: IC90 values
[9] = Plasmodium falciparum, NF54, NF54WT parasites, mean of the experiments, read-out: IC50 values, MEAN
[10] = Plasmodium falciparum, NF54, NF54WT parasites, mean of the experiments, read-out: IC90 values, MEAN
[11] = NF54CTL parasites, individual experiments, read-out: IC50 values
[12] = NF54CTL parasites, individual experiments, read-out: IC90 values
[13] = Plasmodium falciparum, NF54, NF54CTL parasites, individual experiments, read-out: IC90 values
[14] = Plasmodium falciparum, NF54, NF54CTL parasites, mean of the experiments, read-out: IC50 values, MEAN
[15] = Plasmodium falciparum, NF54, NF54CTL parasites, mean of the experiments, read-out: IC90 values, MEAN

Row | SMILES | IC50 (NF54^WT parasites; [6]) | IC90 (NF54^WT parasites; [7]) | FC (IC50) (NF54^WT parasites) | FC (IC90) (NF54^WT parasites) | IC90 (NF54^WT parasites; [8]) | IC50 (NF54^WT parasites; [9]) | IC90 (NF54^WT parasites; [10]) | FC (IC50) (NF54^CTL parasites) | FC (IC90) (NF54^CTL parasites) | IC50 (NF54^CTL parasites; [11]) | IC90 (NF54^CTL parasites; [12]) | IC90 (NF54^CTL parasites; [13]) | IC50 (NF54^CTL parasites; [14]) | IC90 (NF54^CTL parasites; [15]) | effect of the G358S mutation in PfATP4 on parasite susceptibility [5] | further results
1 | CCN(CC)CCCC(C)Nc1ccnc2cc(Cl)ccc12 (stereo not shown) [Chloroquine] | – | – | – | – | – | – | – | – | – | – | – | – | – | – | – | IC50 (Dd2 parasites): 92 nM and 187 nM; IC50 [1]: 165 nM; IC50 (Dd2-Polδ parasites; Dd2-Polδ parasites, individual experiments, read-out: IC50 values): 172 nM and 316 nM; IC50 (Dd2-Polδ parasites; Plasmodium falciparum, DD2, Dd2-Polδ parasites, mean of the experiments, read-out: IC50 values, MEAN): 185 nM; IC50 (Dd2-Polδ parasites; Plasmodium falciparum, DD2, SET-2, read-out: Mean IC50 value ± SEM for growth inhibition, Dd2-Polδ, Supplementary Table 1, Set 2): 185 nM; IC50 [2]: 161 nM and 262 nM and 227 nM; IC50 [3]: 92 nM; IC50 [4]: 229 nM; IC50 ([4]; Plasmodium falciparum): 159 nM
2 | CC1(C)c2nc(-c3ccc(F)cc3)c(Nc3ccc(F)cc3)n2CCN1C(=O)CN [KAF156] | 6.9 nM and 7.1 nM and 5.4 nM | 14.7 nM and 12.9 nM and 12.4 nM and 9.88 nM and 13.6 nM and 9.68 nM | 1.0 fold | 1.0 fold | 17.6 nM | 6.7 nM | 13 nM | 0.7 fold | 0.8 fold | 5.1 nM and 4.4 nM and 4.5 nM and 5.9 nM and 4.7 nM | 13.8 nM and 9.19 nM and 9.36 nM and 8.54 nM and 9.44 nM and 9.66 nM | 12.6 nM | 4.9 nM | 10.4 nM | no impact; also recorded: no effect | IC50 (NF54^WT parasites; Plasmodium falciparum, NF54, NF54WT parasites, individual experiments, read-out: IC50 values): 7.2 nM; IC50 (NF54^WT parasites; Plasmodium falciparum, NF54, NF54WT, 10% human serum, read-out: IC50 ± SEM): 6.7 ± 0.2 nM; IC50 (NF54^CTL parasites; Plasmodium falciparum, NF54, NF54CTL parasites, individual experiments, read-out: IC50 values): 5.5 nM
3 | CCCCN(CCCC)CC(O)c1cc(Cl)cc2c1-c1ccc(Cl)cc1/C2=C/c1ccc(Cl)cc1 (stereo not shown) [Lumefantrine] | 57 nM and 33.7 nM and 89.8 nM and 48.6 nM | 102 nM and 140 nM and 109 nM | 1.0 fold | 1.0 fold | 142 nM | 57.3 nM | 123 nM | 0.8 fold | 1.0 fold | 38.6 nM and 28.4 nM and 70.8 nM and 45.8 nM | 98.1 nM and 138 nM and 120 nM | 138 nM | 45.9 nM | 123 nM | no effect | FC (IC50) (NF54^G358S-1 parasites; NF54G358S-1 compared to NF54WT): 0.7 fold; FC (IC90) (NF54^G358S-1 parasites; NF54G358S-1 compared to NF54WT): 1.1 fold; IC50 (NF54^G358S-1 parasites; NF54G358S-1 parasites, individual experiments, read-out: IC50 values): 34 nM and 51.7 nM and 36.1 nM; IC90 (NF54^G358S-1 parasites; NF54G358S-1 parasites, individual experiments, read-out: IC90 values): 115 nM and 130 nM and 120 nM; IC50 (NF54^G358S-1 parasites; Plasmodium falciparum, NF54, NF54G358S-1 parasites, individual experiments, read-out: IC50 values): 48.2 nM; IC90 (NF54^G358S-1 parasites; Plasmodium falciparum, NF54, NF54G358S-1 parasites, individual experiments, read-out: IC90 values): 182 nM; IC50 (NF54^G358S-1 parasites; Plasmodium falciparum, NF54, NF54G358S-1 parasites, mean of the experiments, read-out: IC50 values, MEAN): 42.5 nM; IC90 (NF54^G358S-1 parasites; Plasmodium falciparum, NF54, NF54G358S-1 parasites, mean of the experiments, read-out: IC90 values, MEAN): 137 nM; FC (IC50) (NF54^G358S-2 parasites; NF54G358S-2 compared to NF54WT): 0.7 fold; FC (IC90) (NF54^G358S-2 parasites; NF54G358S-2 compared to NF54WT): 1.0 fold; IC50 (NF54^G358S-2 parasites; NF54G358S-2 parasites, individual experiments, read-out: IC50 values): 31.8 nM and 46.1 nM and 31.3 nM; IC90 (NF54^G358S-2 parasites; NF54G358S-2 parasites, individual experiments, read-out: IC90 values): 82.7 nM and 129 nM and 123 nM; IC50 (NF54^G358S-2 parasites; Plasmodium falciparum, NF54, NF54G358S-2 parasites, individual experiments, read-out: IC50 values): 55.1 nM; IC90 (NF54^G358S-2 parasites; Plasmodium falciparum, NF54, NF54G358S-2 parasites, individual experiments, read-out: IC90 values): 152 nM; IC50 (NF54^G358S-2 parasites; Plasmodium falciparum, NF54, NF54G358S-2 parasites, mean of the experiments, read-out: IC50 values, MEAN): 41.1 nM; IC90 (NF54^G358S-2 parasites; Plasmodium falciparum, NF54, NF54G358S-2 parasites, mean of the experiments, read-out: IC90 values, MEAN): 122 nM
